PMC9607644, “Glycoconjugation of Quinoline Derivatives Using the C-6 Position in Sugars as a Strategy for Improving the Selectivity and Cytotoxicity of Functionalized Compounds” (Molecules, 2022)

How the values were obtained:
HCT-116 cells = test: MTT cytotoxicity assay, HCT-116; assay type: cell-based, human; details: for IC50: Homo sapiens, HCT-116; for Selectivity Index (SI) HCT-116: IC50 NHDF-Neo / IC50 HCT-116, 72 h incubation; for inhibition of cell growth at the highest doses, HCT-116: 72 h
Description: An in vitro biological test package was performed for the obtained derivatives. […] The MTT test is a colorimetric method for detecting proliferating cells. It is based on the ability of the enzyme mitochondrial dehydrogenase to convert yellow tetrazole salt (MTT) into purple formazan. The amount of the product formed in the reaction, determined spectrophotometrically, is proportional to the number of living cells.
The in vitro cytotoxicity of the test compounds was determined by the MTT (3-[4,5–dimethylthiazol-2-yl]-2,5-diphenyltetrazolium bromide) test (Sigma-Aldrich, Taufkirchen, Germany) according to the manufacturer’s protocol. At the beginning, for each cell line were determined the optimal seeding densities to ensure exponential growth throughout the experimental period. The confluent layer of cells were trypsinized, collected, and suspended in a growth medium. […] Then, the culture medium was replaced with solutions of different concentrations of test compounds in a fresh medium. Stock solutions of test compounds were prepared in DMSO and diluted to final concentrations with appropriate volumes of the growth medium directly before the experiment. Cells suspended in a medium supplemented with 0.5% DMSO (the amount of DMSO necessary to dissolve the highest dose of the respective sample) were used as a control of the experiment. […] The compound-treated cells were incubated for a further 24–72 h. […] After this time, the MTT dye was carefully removed, and the acquired formazan crystals were dissolved by DMSO (Chempur, Piekary Śląskie, Poland). The proliferation was evaluated by measuring the formazan product’s absorbance at a wavelength of 570 nm with a microplate spectrophotometer (Epoch, BioTek, Winooski, VT, USA). All experiments were conducted in triplicate with four technical repeats for each tested concentration. Results were expressed as the percentage change in the viability of the test cells relative to the untreated control cells and calculated as the inhibitory concentration (IC50). […] The results are expressed as the average value ± standard deviation (SD).

NHDF-Neo cells = test: MTT cytotoxicity assay, NHDF-Neo; assay type: cell-based; details: Homo sapiens, incubation time 72 h
Description: An in vitro biological test package was performed for the obtained derivatives. All newly synthesized compounds were assessed for their cytotoxic activity against human cell lines with increased GLUT expression: the colon cancer cell line (HCT-116) and the breast cancer cell line (MCF-7), as well as on normal human dermal fibroblasts cells (NHDF-Neo), using the MTT assay (3-(4,5-dimethylthiazol-2-yl)-2,5-diphenyltetrazolium bromide). The MTT test is a colorimetric method for detecting proliferating cells. It is based on the ability of the enzyme mitochondrial dehydrogenase to convert yellow tetrazole salt (MTT) into purple formazan. The amount of the product formed in the reaction, determined spectrophotometrically, is proportional to the number of living cells. The antiproliferative activity was expressed as the concentration that caused 50% inhibition of the growth of the population of cells treated with the test compounds relative to the control cells (inhibitory concentration activity—IC50). Table 1 and Table 2 summarize the IC50 values calculated for all tested compounds.
The in vitro cytotoxicity of the test compounds was determined by the MTT (3-[4,5–dimethylthiazol-2-yl]-2,5-diphenyltetrazolium bromide) test (Sigma-Aldrich, Taufkirchen, Germany) according to the manufacturer’s protocol. At the beginning, for each cell line were determined the optimal seeding densities to ensure exponential growth throughout the experimental period. The confluent layer of cells were trypsinized, collected, and suspended in a growth medium. The cell suspension were then seeded into 96-well plates at a density of 1 × 10^4 or 2 × 10^3 (HCT-116) or 5 × 10^3 (MCF-7, NHDF-Neo) per well and incubated for 24 h under standard conditions (5% CO2, 37 °C). Then, the culture medium was replaced with solutions of different concentrations of test compounds in a fresh medium. Stock solutions of test compounds were prepared in DMSO and diluted to final concentrations with appropriate volumes of the growth medium directly before the experiment. Cells suspended in a medium supplemented with 0.5% DMSO (the amount of DMSO necessary to dissolve the highest dose of the respective sample) were used as a control of the experiment. […] The compound-treated cells were incubated for a further 24–72 h. After that, the medium was removed and the MTT solution (50 µL, 0.5 mg/mL in PBS) was added into each well and incubated for another 3 h under standard conditions (5% CO2, 37 °C). After this time, the MTT dye was carefully removed, and the acquired formazan crystals were dissolved by DMSO (Chempur, Piekary Śląskie, Poland). The proliferation was evaluated by measuring the formazan product’s absorbance at a wavelength of 570 nm with a microplate spectrophotometer (Epoch, BioTek, Winooski, VT, USA). All experiments were conducted in triplicate with four technical repeats for each tested concentration. Results were expressed as the percentage change in the viability of the test cells relative to the untreated control cells and calculated as the inhibitory concentration (IC50). The IC50 values were defined as the drug concentration that was necessary to reduce cell proliferation to 50% of the untreated control and this parameter was calculated using CalcuSyn software (version 2.0, Biosoft, Cambridge, UK). The results are expressed as the average value ± standard deviation (SD).

MCF-7 cells = test: Annexin V-FITC/PI apoptosis flow cytometry, MCF-7; assay type: cell-based, human; details: IC50 dose, 24 h
Description: Apoptosis is a natural biological process involving programmed cell death and plays an important role in maintaining correct homeostasis between cell proliferation and cell death. This is in contrast to necrosis, which is accompanied by acute inflammation, preceded by cell degradation due to the loss of the integrity of the cell membrane. It is possible to distinguish viable cells from apoptotic and necrotic cell fractions using Annexin V-FITC and Propidium Iodide (PI). Annexin V-FITC labels phosphatidylserine residues that, after the start of apoptosis, are located on the outer surface of the cell membrane, enabling the identification of cells in the early stages of apoptosis. PI binds stoichiometrically to intracellular DNA during late apoptosis and necrosis when the cell membrane has been damaged. This combination allows for the differentiation of early apoptotic (A+/P−), late apoptotic (A+/P+), necrosis (A−/P+), and normal (A−/P−) cells that can be quantified by flow cytometry.
The cell cycle and the type of cell death induced by the test compounds were measured by using flow cytometry according to the manufacturer’s protocol. […] Control cells were grown with fresh medium supplemented with 0.5% DMSO. After 24 h of incubation, the cells were collected by trypsinization. Then, samples were centrifuged (3 min, 2000 rpm, RT) and washed with PBS, after which the cells were centrifuged again (3 min, 2000 rpm, RT) and the supernatant was carefully removed. The resulting precipitate contained cells, which were used for flow cytometry experiments.
The fraction of dead cells after treatment with the test compounds were detected using the FITC Annexin-V Apoptosis Detection Kit with PI (BioLegend, San Diego, CA, USA). […] 250 μL of the Annexin-V Binding Buffer was then added and the samples were incubated in the dark on ice for 15 min.

Compound	IC50 (HCT-116 cells; MTT, incubation time 24 h)	IC50 (HCT-116 cells; MTT, incubation time 72 h)	Selectivity Index (SI) HCT-116 (HCT-116 cells)	inhibition of cell growth at the highest doses, HCT-116 (HCT-116 cells; MTT)	IC50 (NHDF-Neo cells)	apoptotic cells, MCF-7 (MCF-7 cells)	apoptosis induction in words, MCF-7 (MCF-7 cells)	growth inhibitory activity in words, HCT-116 (HCT-116 cells; MTT)
CC(=O)OC1O[C@H](Cn2cc(COc3cccc4cccnc34)nn2)[C@@H](OC(C)=O)[C@H](OC(C)=O)[C@H]1OC(C)=O (stereo partly drawn) [Compound A-1]	83.5 ± 1.91 µM	12 ± 0.9 µM	10.83	100%	130 ± 1.49 µM	35%	–	–
OC1O[C@H](Cn2cc(COc3cccc4cccnc34)nn2)[C@@H](O)[C@H](O)[C@H]1O (stereo partly drawn) [Compound A-2]	191 ± 2.46 µM	22.3 ± 0.7 µM	14.21	100%	317 ± 9.46 µM	39%	–	–
O[C@@H]1[C@@H](O)[C@@H](O[C@H]2O[C@H](Cn3cc(COc4cccc5cccnc45)nn3)[C@@H](O)[C@H](O)[C@H]2O)O[C@H](Cn2cc(COc3cccc4cccnc34)nn2)[C@H]1O [Compound D-2]	53.4 ± 5.14 µM	21.3 ± 0.94 µM	3.32	–	70.7 ± 0.75 µM	70%	–	–
CC(=O)OC[C@H]1O[C@@H](n2cc(COc3cccc4cccnc34)nn2)[C@H](OC(C)=O)[C@@H](OC(C)=O)[C@@H]1OC(C)=O [Compound E-1, reference compound]	–	45.7 ± 1.81 µM	1.21	100%	55.3 ± 5.08 µM	–	did not induce apoptosis	–
OC[C@H]1O[C@@H](n2cc(COc3cccc4cccnc34)nn2)[C@H](O)[C@@H](O)[C@@H]1O [Compound E-2, reference compound]	212 ± 7.71 µM	162 ± 5.97 µM	1.43	–	233 ± 9.44 µM	–	–	practically did not affect the cell viability
